The text below walks through data of PMC9640990 (Frontiers in Pharmacology, 2022).

Where two headings read alike, the source gives them in different places.

The nature of one data set: in vivo. As to conditions: male, Sprague-Dawley, rat, po, 0.72 g/kg; for Cmax: C max; for Vd/F: V z/F; for k el: k e; for half-life: t 1/2, plasma PK-marker; for Tmax: t max, median (range).
A further data set addresses hOAT3 (Homo sapiens, UniProt Q8TCC7). As to the kind of experiment: Inhibition of hOAT3-mediated uptake of 3H-ES in hOAT3-MDCK cells. It is filed as cell-based. The text has this: Considering the relative exposure characteristics, GA and PCA were selected as PK-marker and Q-marker components of PCE in previous studies ([Ma et al., 2015]; [Ma et al., 2016]; [Li et al., 2021b]). In this study, we investigated the concentration-dependent inhibitions of GA and PCA on multiple transporters, including OAT1, OAT3, OCT2, MDR1, and BCRP. Stably expressing cell lines of hOAT1-MDCK, hOAT3-MDCK, hOCT2-S2, hMDR1-MDCK, hBCRP-MDCK, and their mock cells were obtained from Japan Fuji Biomedical Co., Ltd. The cells were maintained in DMEM (Sigma) supplemented with 10% FCS, 1% non-essential amino acids (Sigma), and 2% L-glutamine. The medium for the Transwell® plates (Corning Costar, Cambridge, MA, United States) was supplemented with 0.1% gentamicin. Membrane filters were placed in a 12 mm well with 1.5 and 0.5 ml of culture medium in the basolateral and apical compartments, respectively. Cells were cultured at 37°C in an atmosphere of 5% CO2. The inhibition experiments were adapted from previous methods with minor modifications ([Li et al., 2021a]; [2021b]).
Briefly, the hOAT1-MDCK, hOAT3-MDCK, and hOCT2-S2 cells were trypsinized and suspended in the culture medium to provide a density of 1.5 × 10^5 cells/ml. After incubating for 48 h, the cells were washed twice with preheated DPBS and then pre-incubated with DPBS for 10 min at 37°C. 500 µl of DPBS containing probe substrates was added to initiate the uptake in the presence or absence of GA, PCA or positive inhibitors. The hMDR1-MDCK and hBCRP-MDCK cells were suspended at a density of 4.0 × 10^5 cells/ml. After cultivation for 7 days, cells were washed twice and equilibrated for 30 min at 37°C with the pre-warmed HBSS buffer. […] The radioactive intensity of ^14C-PAH, ^3H-ES, and ^14C-TEA was measured using a Tri-Carb 2910TR scintillator (PerkinElmer, United States). Fluorescence was measured at 485 nm (excitation) and 546 nm (emission) for rhodamine 123, and 425 nm (excitation) and 528 nm (emission) for lucifer yellow. IC50 values were determined by employing GraphPad Prism 9.

The target of the next data set is T1, hBCRP (Homo sapiens, UniProt Q9UNQ0).
T1 construct: host or cells: MDCK
T1 sequence (Q9UNQ0 1-655): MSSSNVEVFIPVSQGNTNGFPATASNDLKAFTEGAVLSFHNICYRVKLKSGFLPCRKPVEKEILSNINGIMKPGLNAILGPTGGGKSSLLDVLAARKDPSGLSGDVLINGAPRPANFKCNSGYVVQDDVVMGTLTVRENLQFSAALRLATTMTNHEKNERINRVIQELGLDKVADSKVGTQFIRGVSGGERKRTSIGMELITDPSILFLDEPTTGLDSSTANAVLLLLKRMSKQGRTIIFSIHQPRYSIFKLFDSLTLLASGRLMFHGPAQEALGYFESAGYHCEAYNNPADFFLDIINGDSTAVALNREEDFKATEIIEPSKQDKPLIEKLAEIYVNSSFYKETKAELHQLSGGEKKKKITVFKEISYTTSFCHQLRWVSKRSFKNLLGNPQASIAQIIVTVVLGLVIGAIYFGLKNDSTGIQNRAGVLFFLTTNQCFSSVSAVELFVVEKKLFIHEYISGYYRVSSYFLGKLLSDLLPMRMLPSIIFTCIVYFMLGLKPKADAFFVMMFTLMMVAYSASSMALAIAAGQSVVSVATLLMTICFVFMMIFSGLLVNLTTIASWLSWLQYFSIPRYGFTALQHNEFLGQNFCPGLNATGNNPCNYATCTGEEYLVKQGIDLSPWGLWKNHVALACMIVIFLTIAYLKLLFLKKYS
Put plainly: hBCRP-mediated efflux of lucifer yellow in hBCRP-MDCK cells. The settings on record: for efflux of BCRP-mediated lucifer yellow: concentration range 0.3 to 30 µM; for inhibitory effect on BCRP activity: hBCRP-MDCK cells, co-incubation 0.3 to 30 µM. It is filed as cell-based.

Another data set has as its target T2, hMDR1 (Homo sapiens, UniProt P08183).
T2 construct: host or cells: MDCK
Put plainly: hMDR1-mediated efflux of rhodamine 123 in hMDR1-MDCK cells. It is filed as cell-based. As to conditions: for efflux of MDR1-mediated rhodamine 123: concentration range 0.3 to 30 µM; for inhibitory effect on MDR1 activity: hMDR1-MDCK cells, co-incubation 0.3 to 30 µM.

Setting [1] is: plasma, plasma PK-marker, rats, intragastric PCE 0.72 g/kg + CIP […].
[2] abbreviates: plasma, plasma PK-marker, rats, intragastric PCE 0.72 g/kg alone.

T2 sequence (P08183 whole entry): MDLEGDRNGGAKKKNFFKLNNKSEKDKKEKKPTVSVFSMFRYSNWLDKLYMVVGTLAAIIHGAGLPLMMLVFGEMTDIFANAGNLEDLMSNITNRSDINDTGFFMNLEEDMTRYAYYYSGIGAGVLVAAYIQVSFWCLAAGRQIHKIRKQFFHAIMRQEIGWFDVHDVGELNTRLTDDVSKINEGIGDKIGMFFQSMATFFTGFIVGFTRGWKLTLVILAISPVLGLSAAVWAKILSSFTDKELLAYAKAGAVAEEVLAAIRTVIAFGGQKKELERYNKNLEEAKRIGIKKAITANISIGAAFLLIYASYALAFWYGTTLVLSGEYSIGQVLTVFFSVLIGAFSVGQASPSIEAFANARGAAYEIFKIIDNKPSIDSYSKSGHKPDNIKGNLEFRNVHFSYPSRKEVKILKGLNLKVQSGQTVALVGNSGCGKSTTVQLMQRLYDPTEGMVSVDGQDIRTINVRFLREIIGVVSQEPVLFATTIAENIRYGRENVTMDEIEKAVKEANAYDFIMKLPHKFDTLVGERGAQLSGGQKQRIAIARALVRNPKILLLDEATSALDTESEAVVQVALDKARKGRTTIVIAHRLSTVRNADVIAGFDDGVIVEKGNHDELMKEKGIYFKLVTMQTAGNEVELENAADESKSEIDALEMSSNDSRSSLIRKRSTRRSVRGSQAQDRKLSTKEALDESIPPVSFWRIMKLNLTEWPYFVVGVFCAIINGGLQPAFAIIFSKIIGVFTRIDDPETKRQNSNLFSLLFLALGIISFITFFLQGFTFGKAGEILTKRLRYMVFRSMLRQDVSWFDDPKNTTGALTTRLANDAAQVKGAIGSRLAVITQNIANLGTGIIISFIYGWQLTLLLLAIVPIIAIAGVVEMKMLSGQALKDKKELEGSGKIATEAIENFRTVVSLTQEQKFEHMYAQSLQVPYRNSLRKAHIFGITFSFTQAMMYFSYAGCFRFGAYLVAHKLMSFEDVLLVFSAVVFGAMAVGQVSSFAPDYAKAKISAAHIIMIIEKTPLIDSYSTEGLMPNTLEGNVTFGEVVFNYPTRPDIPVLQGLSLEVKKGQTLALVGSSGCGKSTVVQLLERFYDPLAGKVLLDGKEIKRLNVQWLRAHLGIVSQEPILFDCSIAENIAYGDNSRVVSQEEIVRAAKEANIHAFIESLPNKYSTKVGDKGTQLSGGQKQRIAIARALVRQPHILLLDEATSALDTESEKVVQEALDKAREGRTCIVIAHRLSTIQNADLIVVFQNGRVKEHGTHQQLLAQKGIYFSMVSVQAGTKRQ
Chain of hOAT3 (Q8TCC7 whole entry): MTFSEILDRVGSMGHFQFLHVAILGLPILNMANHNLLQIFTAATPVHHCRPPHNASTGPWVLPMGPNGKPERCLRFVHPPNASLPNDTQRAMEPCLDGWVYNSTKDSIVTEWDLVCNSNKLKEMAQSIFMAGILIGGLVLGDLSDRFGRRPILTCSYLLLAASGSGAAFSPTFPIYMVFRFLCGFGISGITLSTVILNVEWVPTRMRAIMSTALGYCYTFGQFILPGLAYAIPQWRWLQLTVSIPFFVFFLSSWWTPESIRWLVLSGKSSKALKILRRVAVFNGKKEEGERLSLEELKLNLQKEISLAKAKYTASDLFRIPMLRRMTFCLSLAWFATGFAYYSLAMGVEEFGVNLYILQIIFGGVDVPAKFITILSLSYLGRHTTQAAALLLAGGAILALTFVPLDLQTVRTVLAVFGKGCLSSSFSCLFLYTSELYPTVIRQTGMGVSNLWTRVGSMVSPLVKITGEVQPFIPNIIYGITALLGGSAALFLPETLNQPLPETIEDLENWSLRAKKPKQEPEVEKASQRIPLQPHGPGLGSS
Protocol for hBCRP: Briefly, the hOAT1-MDCK, hOAT3-MDCK, and hOCT2-S2 cells were trypsinized and suspended in the culture medium to provide a density of 1.5 × 10^5 cells/ml. […] After cultivation for 7 days, cells were washed twice and equilibrated for 30 min at 37°C with the pre-warmed HBSS buffer. […] The content of DMSO was below 1% and constant in all inhibition experiments. All experiments were performed in triplicate. The cell lysate and 3.0 ml of aquasol-2 scintillation fluid were put into a scintillation flask. […] IC50 values were determined by employing GraphPad Prism 9.

Broadly, the AUC(0-t) is the area under the concentration-time curve up to a stated or last time point. The term AUC(0-inf) denotes the area under the concentration-time curve extrapolated to infinity. What is called Cmax is the peak of the concentration-time curve. By Vd/F is commonly meant the apparent distribution volume after extravascular dosing. As a reminder, the half-life is the time in which the quantity being followed falls by half. The Tmax is the time from dosing to the highest level. In general, IC50 refers to the point on the concentration scale where inhibition reaches its midpoint. As usually defined, the CL/F is clearance divided by bioavailability, as obtained after extravascular dosing. Regarding `O=C(O)c1ccc(O)c(O)c1` [PCA, protocatechuic acid], in “in vivo” (setting [1]), the AUC(0-t) came out at 6.37 ± 1.18 ng·h/mL, the AUC(0-inf) turned out to be 7.04 ± 1.55 ng·h/mL, the Cmax was determined as 6.69 ± 1.87 ng/mL and the Vd/F amounted to 6.87 ± 2.54 L. In “in vivo” (setting [1]), the k el was 0.000306 s⁻¹ and the Tmax is 30 min. In the data set “in vivo” (setting [2]), this molecule displayed an AUC(0-t) of 6.72 ± 2.39 ng·h/mL, an AUC(0-inf) of 7.32 ± 2.39 ng·h/mL, a Cmax of 5.08 ± 1.82 ng/mL and a Vd/F of 6.5 ± 3.16 L. In “in vivo” (setting [2]), the k el is 0.000308 s⁻¹ and the Tmax was 30 min. The half-life in “in vivo” (plasma, rats, intragastric PCE 0.72 g/kg + CIP […]) is 45.6 ± 25.8 min. Moreover, the half-life in “in vivo” (plasma, rats, intragastric PCE 0.72 g/kg alone) is 40.8 ± 12.6 min. Moreover, the IC50 at hOAT3 (hOAT3-MDCK cells, 3H-ES 0.05 µM, read-out: IC50, hOAT3) stood at 152 µM. On hBCRP, the “efflux of BCRP-mediated lucifer yellow” value is “concentration-dependent increase” and the “inhibitory effect on BCRP activity” value is reported as “no inhibitory effect”. In addition, the CL/F (plasma PK-marker, rats, intragastric PCE 0.72 g/kg + CIP […]) is given as 6.67 ± 1.54 L/h. The molecule also showed a CL/F (plasma PK-marker, rats, intragastric PCE 0.72 g/kg alone) of 6.72 ± 2.19 L/h. Also, at hMDR1, the “efflux of MDR1-mediated rhodamine 123” value was “concentration-dependent increase” and the “inhibitory effect on MDR1 activity” value is on record as “no inhibitory effect”.

As to `O=C(O)c1cc(O)c(O)c(O)c1` [GA, Gallic acid], in the data set “in vivo” (in vivo), the AUC(0-t) was 465 ± 171 ng·h/mL, the AUC(0-inf) worked out at 483 ± 169 ng·h/mL, the highest level (Cmax) was 134 ± 36.4 ng/mL and the Vd/F amounted to 8.93 ± 9.83 L. Further, the Tmax in “in vivo” (in vivo, plasma PK-marker, rats, intragastric PCE 0.72 g/kg alone) came out at 90 min. The k el in the data set “in vivo” (setting [1]) was 0.000122 s⁻¹. This molecule showed a k el in the data set “in vivo” (setting [2]) of 9.72e-05 s⁻¹. The same molecule came in with an IC50 on hOAT3 of 62.3 µM. At hBCRP, the “efflux of BCRP-mediated lucifer yellow” value is “concentration-dependent increase” and the “inhibitory effect on BCRP activity” value is given as “no inhibitory effect”. The “t 1/2” value (male, Sprague-Dawley, rat, in vivo, po, 0.72 g/kg) was found to be 157 ± 107 min. Also, the CL/F (rat, in vivo, po, 0.72 g/kg) is 2.06 ± 0.85 L/h. Besides, at hMDR1, the “efflux of MDR1-mediated rhodamine 123” value is on record as “concentration-dependent increase” and the “inhibitory effect on MDR1 activity” value is on record as “no inhibitory effect”.
